In ChEMBL document CHEMBL1150976, “The selectivity of protein kinase inhibitors: a further update” (Biochem J, 2007) one finds Activity data, which are given here for two compounds.

Each structure is given as a SMILES string.

Assay [1] has as its target T1, MAP kinase-activated protein kinase 5 (Homo sapiens) (UniProt Q8IW41).
T1 sequence (whole entry): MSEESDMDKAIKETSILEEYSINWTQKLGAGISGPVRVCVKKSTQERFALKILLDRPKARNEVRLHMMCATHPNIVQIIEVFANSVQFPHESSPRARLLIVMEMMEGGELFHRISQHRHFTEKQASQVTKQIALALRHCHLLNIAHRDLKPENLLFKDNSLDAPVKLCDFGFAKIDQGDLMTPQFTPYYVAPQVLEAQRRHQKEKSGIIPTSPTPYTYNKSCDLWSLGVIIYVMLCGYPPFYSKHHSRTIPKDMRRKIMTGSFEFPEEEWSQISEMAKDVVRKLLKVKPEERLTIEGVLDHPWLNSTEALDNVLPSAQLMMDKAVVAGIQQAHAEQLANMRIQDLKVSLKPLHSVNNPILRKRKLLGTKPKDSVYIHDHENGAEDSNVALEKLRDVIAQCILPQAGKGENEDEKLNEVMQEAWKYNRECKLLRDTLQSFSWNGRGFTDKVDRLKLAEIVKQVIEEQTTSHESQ
As to the kind of experiment: Percentage PRAK activity remaining in the presence of 3uM inhibitor.

For assay [2], the target named is T2, Serine/threonine-protein kinase Chk1 (Homo sapiens) (UniProt O14757).
T2 sequence (whole entry): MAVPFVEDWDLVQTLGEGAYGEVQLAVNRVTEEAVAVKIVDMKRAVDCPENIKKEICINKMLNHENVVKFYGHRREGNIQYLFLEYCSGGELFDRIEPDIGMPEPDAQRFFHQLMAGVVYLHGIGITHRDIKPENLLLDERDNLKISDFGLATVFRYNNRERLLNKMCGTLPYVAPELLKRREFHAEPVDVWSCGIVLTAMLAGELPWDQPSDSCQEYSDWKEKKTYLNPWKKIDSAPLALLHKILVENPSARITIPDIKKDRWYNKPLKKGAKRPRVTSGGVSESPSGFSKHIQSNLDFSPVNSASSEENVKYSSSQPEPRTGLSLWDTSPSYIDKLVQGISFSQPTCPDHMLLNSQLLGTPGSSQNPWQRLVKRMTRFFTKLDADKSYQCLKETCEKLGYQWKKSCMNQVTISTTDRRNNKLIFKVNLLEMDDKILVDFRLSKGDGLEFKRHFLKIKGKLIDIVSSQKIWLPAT
As to the kind of experiment: Percentage CHK1 activity remaining in the presence of 3uM inhibitor.

Assay [3] addresses T3, Serine/threonine-protein kinase BRSK2 (Homo sapiens) (UniProt Q8IWQ3).
T3 sequence (whole entry): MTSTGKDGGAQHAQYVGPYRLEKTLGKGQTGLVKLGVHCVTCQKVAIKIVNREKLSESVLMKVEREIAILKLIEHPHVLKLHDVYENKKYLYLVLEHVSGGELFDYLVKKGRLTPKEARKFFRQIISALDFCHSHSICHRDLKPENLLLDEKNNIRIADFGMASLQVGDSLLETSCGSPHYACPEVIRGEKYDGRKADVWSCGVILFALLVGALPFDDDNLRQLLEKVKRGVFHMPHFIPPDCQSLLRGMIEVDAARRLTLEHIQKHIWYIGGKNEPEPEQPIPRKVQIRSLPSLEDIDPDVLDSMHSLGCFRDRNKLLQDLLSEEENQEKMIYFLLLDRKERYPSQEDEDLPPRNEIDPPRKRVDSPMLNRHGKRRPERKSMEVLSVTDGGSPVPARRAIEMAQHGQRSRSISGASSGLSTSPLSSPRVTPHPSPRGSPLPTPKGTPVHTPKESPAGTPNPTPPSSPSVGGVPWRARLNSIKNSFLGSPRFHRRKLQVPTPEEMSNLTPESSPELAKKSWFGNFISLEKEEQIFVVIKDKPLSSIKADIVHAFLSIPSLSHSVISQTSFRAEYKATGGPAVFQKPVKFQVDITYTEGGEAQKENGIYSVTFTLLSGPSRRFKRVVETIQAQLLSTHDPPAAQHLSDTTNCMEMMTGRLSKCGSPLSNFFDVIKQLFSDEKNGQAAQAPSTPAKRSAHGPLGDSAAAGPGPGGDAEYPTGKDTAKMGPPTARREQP
As to the kind of experiment: Percentage BRSK2 activity remaining in the presence of 3uM inhibitor.

The target in assay [4] is Serine/threonine-protein kinase PAK 6 (Homo sapiens) (UniProt Q9NQU5). Briefly: Percentage PAK6 activity remaining in the presence of 3uM inhibitor.
In assay [5] the target is MAP kinase-interacting serine/threonine-protein kinase 2 (Homo sapiens) (UniProt Q9HBH9). Briefly: Percentage MNK2 activity remaining in the presence of 3uM inhibitor.
Assay [6] concerns the target Serine/threonine-protein kinase Chk2 (Homo sapiens) (UniProt O96017). As to the kind of experiment: Percentage CHK2 activity remaining in the presence of 3uM inhibitor.
Assay [7] concerns the target Ribosomal protein S6 kinase alpha-5 (Homo sapiens) (UniProt O75582). Briefly: Percentage MSK1 activity remaining in the presence of 2uM inhibitor.
The species named for another assay is Homo sapiens. Briefly: Percentage PHK activity remaining in the presence of 2uM inhibitor.
Assay [8] concerns the target Homeodomain-interacting protein kinase 2 (Homo sapiens) (UniProt Q9H2X6). Briefly: Percentage HIPK2 activity remaining in the presence of 2uM inhibitor. The conditions noted are these: filed as antagonist.
Assay [9] has as its target MAP kinase-interacting serine/threonine-protein kinase 1 (Homo sapiens) (UniProt Q9BUB5). Briefly: Percentage MNK1 activity remaining in the presence of 2uM inhibitor.
For assay [10], the target named is Tyrosine-protein kinase CSK (Homo sapiens, UniProt P41240). Briefly: Percentage CSK activity remaining in the presence of 2uM inhibitor.
Chain of Tyrosine-protein kinase CSK (P41240 2-450 limits assumed): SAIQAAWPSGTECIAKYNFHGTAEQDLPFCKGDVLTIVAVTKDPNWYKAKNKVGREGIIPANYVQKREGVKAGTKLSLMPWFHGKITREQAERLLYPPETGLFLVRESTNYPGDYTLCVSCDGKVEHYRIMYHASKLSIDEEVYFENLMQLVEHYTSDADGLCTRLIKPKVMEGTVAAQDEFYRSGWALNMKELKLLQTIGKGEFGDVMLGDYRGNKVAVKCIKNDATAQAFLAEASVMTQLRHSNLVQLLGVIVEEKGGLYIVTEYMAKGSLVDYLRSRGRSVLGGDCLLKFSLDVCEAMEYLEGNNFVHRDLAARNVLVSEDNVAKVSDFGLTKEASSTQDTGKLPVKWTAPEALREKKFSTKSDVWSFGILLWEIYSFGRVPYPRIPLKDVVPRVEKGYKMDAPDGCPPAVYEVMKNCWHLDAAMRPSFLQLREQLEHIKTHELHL
For assay [11], the target named is T2, Serine/threonine-protein kinase Chk1 (Homo sapiens). Briefly: Percentage CHK1 activity remaining in the presence of 2uM inhibitor.
For assay [12], the target named is T4, Mitogen-activated protein kinase 13 (Homo sapiens) (UniProt O15264).
T4 sequence (whole entry): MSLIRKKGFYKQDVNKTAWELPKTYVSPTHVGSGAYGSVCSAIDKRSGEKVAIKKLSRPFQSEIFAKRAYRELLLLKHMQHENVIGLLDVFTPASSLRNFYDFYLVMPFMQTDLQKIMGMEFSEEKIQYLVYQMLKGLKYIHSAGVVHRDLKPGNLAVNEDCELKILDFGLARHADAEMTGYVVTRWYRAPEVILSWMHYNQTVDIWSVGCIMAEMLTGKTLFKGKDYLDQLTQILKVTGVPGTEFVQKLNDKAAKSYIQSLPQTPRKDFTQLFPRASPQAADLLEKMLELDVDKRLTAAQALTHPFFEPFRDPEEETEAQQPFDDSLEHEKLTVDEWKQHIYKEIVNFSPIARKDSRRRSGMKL
Briefly: Percentage p38delta activity remaining in the presence of 2uM inhibitor.

For assay [13], the target named is T3, Serine/threonine-protein kinase BRSK2 (Homo sapiens). As to the kind of experiment: Percentage BRSK2 activity remaining in the presence of 2uM inhibitor.
In assay [14] the target is Myosin light chain kinase, smooth muscle (Homo sapiens, UniProt Q15746). Briefly: Percentage SmMLCK activity remaining in the presence of 2uM inhibitor.
Chain of Myosin light chain kinase, smooth muscle (Q15746 whole entry): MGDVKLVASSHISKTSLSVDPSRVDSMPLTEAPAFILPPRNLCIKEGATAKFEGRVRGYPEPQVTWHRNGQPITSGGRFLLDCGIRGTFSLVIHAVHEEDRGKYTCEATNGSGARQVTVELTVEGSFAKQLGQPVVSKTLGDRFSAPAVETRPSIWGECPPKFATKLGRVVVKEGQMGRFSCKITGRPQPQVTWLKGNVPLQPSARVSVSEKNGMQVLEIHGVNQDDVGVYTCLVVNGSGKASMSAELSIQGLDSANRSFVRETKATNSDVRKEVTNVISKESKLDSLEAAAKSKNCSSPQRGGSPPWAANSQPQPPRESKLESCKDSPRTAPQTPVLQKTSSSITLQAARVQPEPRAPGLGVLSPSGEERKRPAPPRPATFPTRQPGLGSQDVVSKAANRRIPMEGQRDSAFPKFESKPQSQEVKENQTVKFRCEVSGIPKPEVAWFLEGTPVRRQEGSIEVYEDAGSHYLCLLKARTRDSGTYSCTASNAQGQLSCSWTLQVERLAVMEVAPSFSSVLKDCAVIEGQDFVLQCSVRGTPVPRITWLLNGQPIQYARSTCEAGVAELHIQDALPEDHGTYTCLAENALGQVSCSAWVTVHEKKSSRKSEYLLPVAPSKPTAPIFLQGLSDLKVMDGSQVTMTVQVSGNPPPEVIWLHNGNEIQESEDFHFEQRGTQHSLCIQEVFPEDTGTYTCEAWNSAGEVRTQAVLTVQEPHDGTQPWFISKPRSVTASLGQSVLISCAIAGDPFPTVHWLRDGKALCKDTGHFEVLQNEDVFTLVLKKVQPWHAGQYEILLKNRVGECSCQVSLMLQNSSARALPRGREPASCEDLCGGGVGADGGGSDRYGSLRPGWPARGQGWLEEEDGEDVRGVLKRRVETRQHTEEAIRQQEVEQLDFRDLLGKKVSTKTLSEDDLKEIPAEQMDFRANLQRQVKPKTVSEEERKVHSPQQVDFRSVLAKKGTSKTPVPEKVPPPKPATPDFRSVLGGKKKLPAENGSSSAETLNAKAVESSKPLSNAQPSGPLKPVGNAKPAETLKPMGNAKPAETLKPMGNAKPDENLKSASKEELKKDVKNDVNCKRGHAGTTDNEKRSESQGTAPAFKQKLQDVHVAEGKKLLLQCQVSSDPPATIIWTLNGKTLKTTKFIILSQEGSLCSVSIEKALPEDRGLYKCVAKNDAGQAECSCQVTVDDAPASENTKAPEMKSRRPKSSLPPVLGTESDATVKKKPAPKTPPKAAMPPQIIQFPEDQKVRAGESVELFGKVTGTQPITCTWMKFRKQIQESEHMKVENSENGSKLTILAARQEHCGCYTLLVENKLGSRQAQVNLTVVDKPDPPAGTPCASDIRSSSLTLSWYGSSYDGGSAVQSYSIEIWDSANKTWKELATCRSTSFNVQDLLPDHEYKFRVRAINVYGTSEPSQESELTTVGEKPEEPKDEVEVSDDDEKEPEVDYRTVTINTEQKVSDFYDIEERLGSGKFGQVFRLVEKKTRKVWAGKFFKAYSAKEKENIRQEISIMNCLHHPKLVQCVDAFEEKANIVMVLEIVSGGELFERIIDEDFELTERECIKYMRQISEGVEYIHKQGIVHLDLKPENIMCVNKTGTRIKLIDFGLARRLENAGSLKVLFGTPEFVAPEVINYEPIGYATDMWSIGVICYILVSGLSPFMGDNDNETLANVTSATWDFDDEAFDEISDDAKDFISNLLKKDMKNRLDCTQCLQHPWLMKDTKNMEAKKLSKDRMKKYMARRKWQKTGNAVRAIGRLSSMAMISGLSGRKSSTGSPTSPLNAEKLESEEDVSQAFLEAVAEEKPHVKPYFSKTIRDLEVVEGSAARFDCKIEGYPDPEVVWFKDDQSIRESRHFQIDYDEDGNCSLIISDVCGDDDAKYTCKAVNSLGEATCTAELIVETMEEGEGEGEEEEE

Chain of Ribosomal protein S6 kinase alpha-5 (Homo sapiens) (O75582 whole entry, looked up): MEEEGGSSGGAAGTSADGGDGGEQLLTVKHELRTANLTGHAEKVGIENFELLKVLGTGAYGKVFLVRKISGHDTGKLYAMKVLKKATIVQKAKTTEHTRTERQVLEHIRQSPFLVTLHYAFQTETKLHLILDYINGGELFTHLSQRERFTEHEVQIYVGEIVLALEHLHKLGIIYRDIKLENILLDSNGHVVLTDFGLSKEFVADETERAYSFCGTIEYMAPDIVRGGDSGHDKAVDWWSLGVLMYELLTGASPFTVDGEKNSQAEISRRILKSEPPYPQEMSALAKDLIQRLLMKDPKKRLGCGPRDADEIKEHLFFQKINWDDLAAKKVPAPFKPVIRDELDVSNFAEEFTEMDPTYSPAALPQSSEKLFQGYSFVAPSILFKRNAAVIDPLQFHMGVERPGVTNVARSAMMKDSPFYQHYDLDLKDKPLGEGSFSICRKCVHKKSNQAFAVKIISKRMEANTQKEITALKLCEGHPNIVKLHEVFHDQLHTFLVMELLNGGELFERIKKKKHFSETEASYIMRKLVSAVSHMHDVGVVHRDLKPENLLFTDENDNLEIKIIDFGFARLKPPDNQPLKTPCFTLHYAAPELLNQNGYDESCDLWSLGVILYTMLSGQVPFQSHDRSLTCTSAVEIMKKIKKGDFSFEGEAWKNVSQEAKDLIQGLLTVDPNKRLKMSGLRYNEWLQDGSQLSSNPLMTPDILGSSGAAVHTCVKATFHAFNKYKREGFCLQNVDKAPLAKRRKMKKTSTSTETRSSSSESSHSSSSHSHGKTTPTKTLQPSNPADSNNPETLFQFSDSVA
Chain of Serine/threonine-protein kinase Chk2 (Homo sapiens) (O96017 whole entry): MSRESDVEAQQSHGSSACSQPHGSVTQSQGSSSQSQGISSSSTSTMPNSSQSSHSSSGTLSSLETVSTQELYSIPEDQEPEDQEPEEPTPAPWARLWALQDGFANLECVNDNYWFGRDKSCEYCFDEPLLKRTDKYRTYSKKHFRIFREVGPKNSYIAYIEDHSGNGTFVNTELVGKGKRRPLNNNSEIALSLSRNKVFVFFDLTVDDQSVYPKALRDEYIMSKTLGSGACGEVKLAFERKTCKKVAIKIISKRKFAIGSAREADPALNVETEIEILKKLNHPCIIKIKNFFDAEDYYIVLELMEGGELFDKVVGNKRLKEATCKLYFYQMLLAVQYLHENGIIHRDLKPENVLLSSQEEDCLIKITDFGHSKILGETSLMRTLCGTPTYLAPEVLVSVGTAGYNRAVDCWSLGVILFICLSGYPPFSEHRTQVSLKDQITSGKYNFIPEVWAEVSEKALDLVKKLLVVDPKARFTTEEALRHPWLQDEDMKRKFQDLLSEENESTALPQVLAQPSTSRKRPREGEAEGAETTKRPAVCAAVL
Chain of Homeodomain-interacting protein kinase 2 (Homo sapiens) (Q9H2X6 whole entry, looked up): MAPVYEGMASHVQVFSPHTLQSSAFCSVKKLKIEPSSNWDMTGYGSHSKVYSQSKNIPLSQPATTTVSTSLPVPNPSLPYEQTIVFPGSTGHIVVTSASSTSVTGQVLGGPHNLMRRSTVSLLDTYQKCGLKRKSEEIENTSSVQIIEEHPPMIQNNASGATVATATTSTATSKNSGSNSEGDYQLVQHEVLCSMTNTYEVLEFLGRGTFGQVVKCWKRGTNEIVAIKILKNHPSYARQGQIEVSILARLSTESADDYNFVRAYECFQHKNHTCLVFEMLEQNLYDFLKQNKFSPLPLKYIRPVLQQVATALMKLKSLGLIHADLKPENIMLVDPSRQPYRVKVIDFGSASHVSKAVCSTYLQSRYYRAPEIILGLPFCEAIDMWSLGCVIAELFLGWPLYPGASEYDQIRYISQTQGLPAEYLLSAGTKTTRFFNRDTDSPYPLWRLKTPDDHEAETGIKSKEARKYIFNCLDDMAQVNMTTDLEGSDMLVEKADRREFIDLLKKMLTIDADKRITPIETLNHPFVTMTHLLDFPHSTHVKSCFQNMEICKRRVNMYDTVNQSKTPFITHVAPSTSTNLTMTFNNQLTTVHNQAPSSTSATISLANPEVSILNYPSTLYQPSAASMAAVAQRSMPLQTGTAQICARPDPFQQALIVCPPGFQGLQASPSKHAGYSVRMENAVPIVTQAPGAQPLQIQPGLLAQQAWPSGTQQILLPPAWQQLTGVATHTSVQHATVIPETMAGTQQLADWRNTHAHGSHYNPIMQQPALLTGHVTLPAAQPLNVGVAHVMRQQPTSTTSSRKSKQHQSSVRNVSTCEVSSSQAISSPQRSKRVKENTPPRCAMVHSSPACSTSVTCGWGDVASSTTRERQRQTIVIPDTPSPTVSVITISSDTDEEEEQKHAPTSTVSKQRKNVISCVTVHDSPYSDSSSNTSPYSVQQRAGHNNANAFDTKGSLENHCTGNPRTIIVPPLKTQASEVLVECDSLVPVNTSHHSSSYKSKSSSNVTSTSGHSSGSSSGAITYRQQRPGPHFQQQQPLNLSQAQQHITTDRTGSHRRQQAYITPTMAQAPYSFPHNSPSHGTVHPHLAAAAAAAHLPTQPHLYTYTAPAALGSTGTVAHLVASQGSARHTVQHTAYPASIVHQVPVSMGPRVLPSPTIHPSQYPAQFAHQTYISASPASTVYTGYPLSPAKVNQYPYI

Regarding `Cc1ccc(-c2c(C(=O)CF)n(CCCO)c3ncnc(N)c23)cc1`, the Activity turned out to be 97% in [1]; 88% in assay [2]; 53% in assay [3]; 93% in [4]; 65% in assay [5]; 81% in assay [6].
Take `Cn1cc(C2=C(c3ccc(Cl)cc3Cl)C(=O)NC2=O)c2ccccc21`: the Activity in assay [7] was 69%; in the assay listed under Homo sapiens it was 87%; in assay [8], 15%; in assay [9] it was 85%; in assay [10], 88%; in assay [11], 87%. Moreover, the figures for the Activity in assay [12], in assay [13] and in assay [14] were 81%, 83% and 60%, respectively.
